Values joined by “and” are separate entries in the source; they are usually repeats but may differ in a detail not shown here. Equal entries are not always repeated. Where two headings read alike, the source gives them in different places.
Experiments:
VIM-2 [1] = target: T1, VIM-2 (Pseudomonas aeruginosa, UniProt Q9K2N0); assay: Single dose enzymatic inhibition assay against VIM2 (nitrocefin hydrolysis); type: biochemical, P. aeruginosa; conditions: for VIM2 inhibition in words: single dose, 50 μM
Description: (§1) For our biochemical assay, the blavmugene, from a clinical strain of P. aeruginosa, was expressed using the pET24a (+) vector [20]. The pET24a-VIM-2 plasmid was transformed into competent BL21 (DE3) E. coli cells. The cells were plated onto an LB-agar plate with kanamycin (25 μg/mL) and incubated overnight at 37° C. A single colony was used to inoculate 50 mL of LB, containing 25 μg/mL kanamycin, and the culture was shaken overnight at 37° C. From the overnight culture, 10 mL were transferred to 4×1 L LB medium containing 25 μg/mL kanamycin. The cultures were grown at 37° C. until the optical density (OD600 nm) reached 0.6-0.8, at which point protein production was induced with IPTG (0.5 mM) and ZnC12 (100 μM). The temperature was reduced to 20° C., and the cells were shaken for an additional 18 h. The cultures were harvested by centrifugation (8K×g) for 10 min at 4° C. The resulting pellets were re-suspended with 25 mL of 50 mM HEPES, pH 7.5, containing 500 mM NaCl (buffer B). The cells were lysed with three passes through a French Press. The lysate was centrifuged (15 Kxg) for 30 min at 4° C. The supernatant was dialyzed against 2 L of 50 mM HEPES, pH 7.5 (buffer A), for 4 h. Buffer A was used to equilibrate a 25 mL Q-Sepharose column using an FPLC. The sample was loaded onto the column, and proteins were eluted with a linear gradient 0-500 mM NaCl with buffer B. Fractions containing VIM2, determined by SDS-PAGE, were pooled and concentrated to 2-3 mL in an Amicon ultraconcentrator equipped YM-10 membrane. Further purification was conducted with a Sephacryl S-200 gel filtration column using 50 mM HEPES, pH 7.5, containing 150 mM NaCl.

E. coli = assay: Cell viability assay, wild type E. coli growth; type: cell-based; conditions: for relative percentage growth compared to untreated cells: E. coli
Description: (§2) The cells were cultured on 0.8 g/100 ml nutrient agar plate at pH 7.0 and 37° C. The bacterial growth medium was diluted in nutrient broth (NB) to a concentration absorbance of 1.5 at OD600 nm and incubated overnight in 10 ml capped culture tubes with shaking. An overnight culture of the bacterial strain was sub-cultured to an optical density of 0.06 at OD600 nm into the NB medium and was then seeded at max 200 μl into the wells of a 96 well microtiter plate. Samples were then incubated at 37° C. and shaken at 200 rpm for 18 h.

VIM2 expressing E. coli = type: cell-based
Description: as §2

VIM-2 [2] = target: T1, VIM-2; assay: Dose response enzymatic inhibition assay and inhibition constant against VIM2; type: biochemical, P. aeruginosa; conditions: for Ligand efficiency (LE): LE = −1.38 log (Ki)/N, N = number of heavy atoms
Description: as §1
The relative change in absorbance was evaluated as percentage inhibition and the IC50 was determined by fitting the data to a sigmoidal dose-response curve. The enzyme inhibition constant (Ki) was derived from initial-velocity measurements by nonlinear regression using competitive-inhibition enzyme kinetics using Graphpad Prism 6.

VIM-2 expressing E. coli = assay: EC50* for restoring amoxicillin growth inhibition in VIM-2 expressing E. coli; type: cell-based; conditions: in the presence of 50 μM amoxicillin
Description: as §2
The bacterial culture was prepared as described above. […] The mixing of the bacterial culture plate were then incubated in a 37° C. […] shaken incubator at 200 rpm for 18 h before measuring their optical density at 600 nm.

HEK293 cells [3] = tested on: HEK293 cells
Description: (§3) Human embryonic kidney cell line (HEK293) was grown in DMEM (Dulbecco's modifications of eagle's medium with L-glutamine & 4.5 G/L glucose) supplemented with fetal bovine serum 100 units/ml of penicillin G and 0.1 mg/ml of streptomycin sulfate in a humidified atmosphere of a 5% CO2 at 37° C.
(§4) Cell proliferations were measured by counting viable cells by using the 3(4,5dimethylthiazol-2-yl)-2,5-diphenyltetrazolium bromide (MTT) (Sigma-Aldrich, St. Louis, Mo.) colorimetric dye-reduction assay. […] After 72 hrs, 10 μl of MTT (5 mg/ml) dye was added to each well and the plates were incubated for 4 hours at 37° C. in 5% CO2 incubator. After centrifuge with 1,500 rpm/10 mins, the supernatant was removed and 200 μl of dimethyl sulfoxide (DMSO) was added and the plates were gently shaken to solubilize the formed formazan for 30 min. The absorbance was measured using a micro-plate reader at wave length 590 nm. The CC50 were obtained by fitting the data to a sigmoidal dose-response equation using Graphpad Prism 6.

HDACs = conditions: earlier study; cited from earlier work
HEK293 cells [4] = assay: Cytotoxicity by MTT cell proliferation assay in HEK293; conditions: HEK293 CC50 ratio
Description: as §3, §4

VIM-2 [5] = target: T1, VIM-2; conditions: literature value; read-out: IC50 in parenthesis reported from ref. 3; cited from earlier work
[6] = Cytotoxicity by MTT cell proliferation assay in HEK293; conditions: human, HEK293 cells
Description: as §3, §4

[7] = 50 μM compound, 5 nM VIM-2, 10 μM nitrocefin, 30 mins
[8] = 5 nM VIM-2, 10 μM nitrocefin, read-out: IC50
[9] = competitive-inhibition fit, nitrocefin substrate, read-out: Ki

Compound	% Inhibition at 50 μM (VIM-2 [1]; [7]) [%]	VIM2 inhibition in words (VIM-2 [1])	relative percentage growth compared to untreated cells (E. coli; Amox(+), 50 μM amoxicillin) [%]	relative percentage growth compared to untreated cells (E. coli; Amox(−)) [%]	relative percentage growth compared to untreated cells (VIM2 expressing E. coli; Amox(+), 50 μM amoxicillin) [%]	relative percentage growth compared to untreated cells (VIM2 expressing E. coli; Amox(−)) [%]	inhibition at 50 µM (VIM-2 [1]; [7]) [%]	further results
O=C(CCCCCCC(=O)Nc1ccccc1)NO [SAHA]	29	Poor inhibition	3.6	83	60	79		
O=C(O)c1cccc(=S)n1O [Compound 3, 1-Hydroxypyridine-2(1H)-thiones-6-carboxylic acid]	98		3.6	77	3.2	61		IC50 (VIM-2 [2]; [8]): 270 nM; Ligand efficiency (LE) (VIM-2 [2]): 0.99; Ki (VIM-2 [2]; [9]): 13 nM; IC50 (VIM-2 [2]; read-out: IC50): 270 nM; Ki (VIM-2 [2]; read-out: Ki): 13 nM; antibacterial activity on their own, in words (E. coli; wild type E. coli): moderate antibacterial activity; antibacterial activity on their own, in words (VIM2 expressing E. coli): moderate antibacterial activity; synergistic growth inhibition with amoxicillin (VIM2 expressing E. coli): over 90%; EC50 (VIM-2 expressing E. coli): 100 nM and 110 nM; CC50 (HEK293 cells [3]): 97000 nM; range selectivity among all eleven HDACs (HDACs): ~5000 fold; fold change in cytotoxicity from parent compound 2 (HEK293 cells [4]): 6900 fold
C[C@H](CS)C(=O)N1CCC[C@H]1C(=O)O [L-Captopril]	98							antibacterial activity on their own, in words (E. coli; wild type E. coli): moderate antibacterial activity; antibacterial activity on their own, in words (VIM2 expressing E. coli): moderate antibacterial activity; synergistic growth inhibition with amoxicillin (VIM2 expressing E. coli): over 90%; IC50 (VIM-2 [5]): 4400 nM
O=C(O)[C@H]1/C(=C/CO)O[C@@H]2CC(=O)N21 [Clavulanate]	15		2.9	86	57	93	≤ 25	
On1ccccc1=S [Compound 2b, 1-Hydroxypyridine-2-thione]								inhibition at 50 µM (VIM-2 [1]): 93%; IC50 (VIM-2 [2]): 908 nM; Ki (VIM-2 [2]): 217 nM; growth inhibition activity on its own (E. coli; wild type E. coli, compound alone): over 89%; growth inhibition activity on its own (VIM2 expressing E. coli; compound alone): over 89%; CC50 at 72 h [6]: 14 nM
CC1(C)S[C@@H]2[C@H](NC(=O)[C@H](N)c3ccc(O)cc3)C(=O)N2[C@H]1C(=O)O [Amox, amoxicillin]			3.6		77			growth inhibition by amoxicillin alone (E. coli; wild type E. coli, 50 μM): over 96%
Zinc pyrithione [Compound 2a]	15							
O=C(N[C@@H](C(=O)O)c1ccccc1)c1cccc(=S)n1O [Compound 5]	34	Moderate inhibitory activities						fold loss of Ki relative to compound 3 (VIM-2 [2]): 576 fold; IC50 (VIM-2 [2]; [8]): 67900 nM; Ligand efficiency (LE) (VIM-2 [2]): 0.34; Ki (VIM-2 [2]; [9]): 7500 nM
O=C(NC(C(=O)O)c1ccccc1)c1ccc(=O)n(O)c1 (stereo not drawn) [Compound 1, 2-(1-Hydroxy-6-oxo-1,6-dihydropyridine-3-carboxamido)-2-phenylacetic acid]		Poor inhibition					12	
C[C@]1(Cn2ccnn2)[C@H](C(=O)O)N2C(=O)C[C@H]2S1(=O)=O [Tazobactam]	25						≤ 25	

Source: US11491146B2, “Therapeutic methods and combinations” (priority 2017, dated 2022)
